Results: PubChem BioAssay (NCI)
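Following 48 hours of exposure in 96-well plates, responses at five concentrations were used to interpolate endpoints linearly. GI50 is the concentration that inhibits growth by half. The concentration for full growth arrest is given as TGI.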

Experiments:
Assay in all cases: NCI tumour cell line growth inhibition, 48 h; in the data active means GI50 below about 0.43 µM; inactive means the rest
[1] = test system: ACHN renal
[2] = test system: DU-145 prostate
[3] = test system: HS 578T breast
[4] = test system: M14 melanoma
[5] = test system: MDA-MB-231 breast
[6] = test system: MDA-MB-435
[7] = test system: MDA-N
[8] = test system: PC-3 prostate
[9] = test system: SR leukemia
[10] = test system: T-47D breast
[11] = test system: TK-10 renal
[12] = test system: KM20L2 colon
[13] = test system: P388 leukemia
[14] = test system: P388/ADR leukemia
[15] = test system: SNB-75 CNS
[16] = test system: XF 498 CNS

C/C=C(/C)C(=O)O[C@@H]1c2c(C)coc2C[C@H]2CC[C@H](O)[C@H](C)[C@]21C
> 100 µM: TGI [1] | TGI [2] | TGI [3] | TGI [4] | TGI [5] | TGI [6] | TGI [7] | TGI [8] | TGI [9] | TGI [10] | TGI [11]

[Cl-].[Rh+3].c1ccc(-c2ccnc3c2ccc2c(-c4ccccc4)ccnc23)cc1.c1ccc(-c2ccnc3c2ccc2c(-c4ccccc4)ccnc23)cc1.c1ccc(-c2ccnc3c2ccc2c(-c4ccccc4)ccnc23)cc1
89.3 µM: TGI [16]
> 71 µM: TGI [13]
> 100 µM: TGI [12] | TGI [14] | TGI [15]
inactive: GI50 [13] 24.7 µM | GI50 [14] 23.7 µM | GI50 [16] 23.1 µM

O=[N+]([O-])c1ccc(/C=C/c2ccc(N=Nc3ccc(/C=C/c4ccc([N+](=O)[O-])cc4S(=O)(=O)O)c(S(=O)(=O)O)c3)cc2S(=O)(=O)O)c(S(=O)(=O)O)c1
> 100 µM: TGI [13] | TGI [14] | TGI [15] | TGI [16]
